Assay results reported in ChEMBL document CHEMBL5346860, “Cancer multidrug-resistance reversal by ABCB1 inhibition: A recent update” (Eur J Med Chem, 2022).
One block for each compound: values may come before it.

Tests used:
[1] = target: T1, ATP-dependent translocase ABCB1 (Homo sapiens, UniProt P08183); assay: Inhibition of ABCB1 efflux pump in human LS180 cells using Rh123 as substrate incubated for 90 mins by fluorescence based assay; assay type: cell-based
[2] = Antiproliferative activity against daunorubicin-resistant human EPG85-257 cells incubated for 72 hrs by annexin-V-PI staining based flow cytometry; assay type: functional, EPG85-257RDB
[3] = cells; details: Homo sapiens, EPP85-181RDB, 72 h
Description: Antiproliferative activity against daunorubicin-resistant human EPP85-181 cells incubated for 72 hrs by annexin-V-PI staining based flow cytometry

[4] = test system: HeLa S3; assay: cells; details: Homo sapiens, HeLa S3, 72 h
Description: Antiproliferative activity against drug-sensitive human HeLaS3 cells assessed as cell growth inhibition incubated for 72 hrs by SRB assay

[5] = cells; details: Homo sapiens, KBVIN, 72 h
Description: Antiproliferative activity against multidrug-resistant human KB-VIN cells assessed as cell growth inhibition incubated for 72 hrs by SRB assay

[6] = Antiproliferative activity against human Flp-In-293 cells expressing ABCB1 assessed as cell growth inhibition incubated for 72 hrs by SRB assay; assay type: toxicity, cell-based
[7] = Reversal of drug resistance in paclitaxel-resistant human OVCAR-3 cells assessed as fold decrease in paclitaxel IC50 in presence of paclitaxel; assay type: functional, paclitaxel-resistant human OVCAR-3 cell
[8] = Reversal of drug resistance in paclitaxel-resistant human TOV-21G cells assessed as fold change in paclitaxel IC50 in presence of paclitaxel; assay type: functional, paclitaxel-resistant human TOV-21G cell
[9] = target: T1, ATP-dependent translocase ABCB1; assay: Inhibition of P-gp efflux pump in human MCF7 cells assessed as fold increase in vinblastine cellular accumulation; assay type: cell-based
[10] = target: T2, Broad substrate specificity ATP-binding cassette transporter ABCG2 (Homo sapiens, UniProt Q9UNQ0); assay: Inhibition of BCRP efflux pump in human MCF7 cells assessed as fold increase in vinblastine cellular accumulation; assay type: cell-based
T2 sequence (Q9UNQ0 whole entry): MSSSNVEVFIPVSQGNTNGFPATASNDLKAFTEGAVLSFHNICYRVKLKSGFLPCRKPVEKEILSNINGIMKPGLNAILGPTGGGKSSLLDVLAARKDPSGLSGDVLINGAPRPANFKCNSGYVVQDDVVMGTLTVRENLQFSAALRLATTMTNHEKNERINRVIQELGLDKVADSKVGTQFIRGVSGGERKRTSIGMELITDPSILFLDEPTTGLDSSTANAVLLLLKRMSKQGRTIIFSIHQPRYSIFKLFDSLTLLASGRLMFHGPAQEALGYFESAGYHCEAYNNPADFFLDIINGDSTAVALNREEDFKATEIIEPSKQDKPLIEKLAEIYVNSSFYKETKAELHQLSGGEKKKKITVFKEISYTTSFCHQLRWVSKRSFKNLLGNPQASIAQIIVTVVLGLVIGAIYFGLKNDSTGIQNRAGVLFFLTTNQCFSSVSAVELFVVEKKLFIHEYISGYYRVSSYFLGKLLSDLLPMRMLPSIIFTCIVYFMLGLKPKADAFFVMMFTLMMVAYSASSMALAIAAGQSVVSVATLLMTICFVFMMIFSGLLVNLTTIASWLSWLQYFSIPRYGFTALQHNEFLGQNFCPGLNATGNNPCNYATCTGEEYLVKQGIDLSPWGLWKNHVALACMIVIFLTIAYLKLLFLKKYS

[11] = target: Multidrug resistance-associated protein 1 (Homo sapiens, UniProt P33527); assay: Inhibition of MRP1 efflux pump in human MCF7 cells assessed as fold increase in vinblastine cellular accumulation; assay type: cell-based
Sequence of Multidrug resistance-associated protein 1 (P33527 whole entry): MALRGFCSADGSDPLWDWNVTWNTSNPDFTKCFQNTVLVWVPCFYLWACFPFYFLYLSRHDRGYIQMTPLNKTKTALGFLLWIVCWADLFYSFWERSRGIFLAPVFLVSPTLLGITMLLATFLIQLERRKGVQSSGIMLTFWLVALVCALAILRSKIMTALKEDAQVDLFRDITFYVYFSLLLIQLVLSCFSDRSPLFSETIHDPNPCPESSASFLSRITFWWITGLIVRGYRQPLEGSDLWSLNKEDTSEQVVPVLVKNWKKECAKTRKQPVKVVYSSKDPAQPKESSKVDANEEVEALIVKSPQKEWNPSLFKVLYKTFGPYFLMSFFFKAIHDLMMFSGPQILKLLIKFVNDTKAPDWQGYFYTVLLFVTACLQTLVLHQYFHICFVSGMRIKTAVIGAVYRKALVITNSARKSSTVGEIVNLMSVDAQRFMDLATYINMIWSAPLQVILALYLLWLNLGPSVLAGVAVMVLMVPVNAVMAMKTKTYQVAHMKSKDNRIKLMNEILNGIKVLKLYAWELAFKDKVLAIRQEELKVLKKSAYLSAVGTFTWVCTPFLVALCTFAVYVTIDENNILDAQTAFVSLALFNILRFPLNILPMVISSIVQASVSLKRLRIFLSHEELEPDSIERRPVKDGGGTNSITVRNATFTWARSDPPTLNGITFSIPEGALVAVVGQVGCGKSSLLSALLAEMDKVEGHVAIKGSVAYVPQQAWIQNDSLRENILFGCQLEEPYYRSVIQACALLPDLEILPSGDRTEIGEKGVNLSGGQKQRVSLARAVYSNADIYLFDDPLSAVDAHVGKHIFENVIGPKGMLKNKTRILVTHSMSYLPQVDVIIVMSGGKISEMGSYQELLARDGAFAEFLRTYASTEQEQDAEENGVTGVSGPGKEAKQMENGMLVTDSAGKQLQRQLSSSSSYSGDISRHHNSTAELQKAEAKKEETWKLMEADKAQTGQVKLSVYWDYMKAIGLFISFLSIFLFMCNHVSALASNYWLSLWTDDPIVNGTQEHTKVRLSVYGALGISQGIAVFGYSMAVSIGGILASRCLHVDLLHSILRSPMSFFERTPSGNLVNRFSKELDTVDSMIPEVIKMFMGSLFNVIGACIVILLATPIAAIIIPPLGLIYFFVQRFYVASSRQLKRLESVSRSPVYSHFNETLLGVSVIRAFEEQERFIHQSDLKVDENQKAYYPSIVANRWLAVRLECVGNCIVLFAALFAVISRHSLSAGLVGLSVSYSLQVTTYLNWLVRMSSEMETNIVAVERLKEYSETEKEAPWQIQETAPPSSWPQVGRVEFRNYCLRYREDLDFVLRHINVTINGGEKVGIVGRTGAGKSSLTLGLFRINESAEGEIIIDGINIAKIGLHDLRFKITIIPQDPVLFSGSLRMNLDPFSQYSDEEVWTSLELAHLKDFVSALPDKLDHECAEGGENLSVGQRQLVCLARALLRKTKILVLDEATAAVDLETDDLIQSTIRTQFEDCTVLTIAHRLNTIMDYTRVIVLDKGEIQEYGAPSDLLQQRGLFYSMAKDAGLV

[12] = test system: P388/ADR; assay: Reversal of ABCB1 mediated doxorubicin-resistance in mouse P388/ADR cells assessed as cell growth inhibition incubated for 48 hrs by MTT assay; assay type: functional, cell-based
[13] = test system: P388/ADR; assay: Potency index, ratio of verapamil IC50 to compound IC50 for reversal of ABCB1 mediated doxorubicin-resistance in mouse P388/ADR cells assessed as cell growth inhibition incubated for 48 hrs by MTT assay; assay type: functional
[14] = test system: KB-V1; assay: cells; details: Homo sapiens, KB-V1, 72 h
Description: Cytotoxicity against human KB-V1 cells assessed as cell growth inhibition incubated for 72 hrs by MTS assay

[15] = test system: KB 3-1; assay: cells; details: Homo sapiens, KB 3-1, 72 h
Description: Cytotoxicity against human KB 3-1 cells assessed as cell growth inhibition incubated for 72 hrs by MTS assay

[16] = test system: ADR5000 cell line; assay: Antitumor activity against human CEM/ADR5000 cells assessed as fold increase in doxorubicin accumulation; assay type: functional
[17] = target: T1, ATP-dependent translocase ABCB1; assay: Inhibition of ABCB1 in multi-drug resistance human HL-60 cells assessed as increase in daunorubicin accumulation; assay type: cell-based
[18] = test system: L5178Y; assay: Cytotoxicity against multidrug-resistant mouse L5178Y cells expressing ABCB1 assessed as cell growth inhibition incubated for 24 hrs by MTT assay; assay type: functional, cell-based

T1 sequence (P08183 whole entry): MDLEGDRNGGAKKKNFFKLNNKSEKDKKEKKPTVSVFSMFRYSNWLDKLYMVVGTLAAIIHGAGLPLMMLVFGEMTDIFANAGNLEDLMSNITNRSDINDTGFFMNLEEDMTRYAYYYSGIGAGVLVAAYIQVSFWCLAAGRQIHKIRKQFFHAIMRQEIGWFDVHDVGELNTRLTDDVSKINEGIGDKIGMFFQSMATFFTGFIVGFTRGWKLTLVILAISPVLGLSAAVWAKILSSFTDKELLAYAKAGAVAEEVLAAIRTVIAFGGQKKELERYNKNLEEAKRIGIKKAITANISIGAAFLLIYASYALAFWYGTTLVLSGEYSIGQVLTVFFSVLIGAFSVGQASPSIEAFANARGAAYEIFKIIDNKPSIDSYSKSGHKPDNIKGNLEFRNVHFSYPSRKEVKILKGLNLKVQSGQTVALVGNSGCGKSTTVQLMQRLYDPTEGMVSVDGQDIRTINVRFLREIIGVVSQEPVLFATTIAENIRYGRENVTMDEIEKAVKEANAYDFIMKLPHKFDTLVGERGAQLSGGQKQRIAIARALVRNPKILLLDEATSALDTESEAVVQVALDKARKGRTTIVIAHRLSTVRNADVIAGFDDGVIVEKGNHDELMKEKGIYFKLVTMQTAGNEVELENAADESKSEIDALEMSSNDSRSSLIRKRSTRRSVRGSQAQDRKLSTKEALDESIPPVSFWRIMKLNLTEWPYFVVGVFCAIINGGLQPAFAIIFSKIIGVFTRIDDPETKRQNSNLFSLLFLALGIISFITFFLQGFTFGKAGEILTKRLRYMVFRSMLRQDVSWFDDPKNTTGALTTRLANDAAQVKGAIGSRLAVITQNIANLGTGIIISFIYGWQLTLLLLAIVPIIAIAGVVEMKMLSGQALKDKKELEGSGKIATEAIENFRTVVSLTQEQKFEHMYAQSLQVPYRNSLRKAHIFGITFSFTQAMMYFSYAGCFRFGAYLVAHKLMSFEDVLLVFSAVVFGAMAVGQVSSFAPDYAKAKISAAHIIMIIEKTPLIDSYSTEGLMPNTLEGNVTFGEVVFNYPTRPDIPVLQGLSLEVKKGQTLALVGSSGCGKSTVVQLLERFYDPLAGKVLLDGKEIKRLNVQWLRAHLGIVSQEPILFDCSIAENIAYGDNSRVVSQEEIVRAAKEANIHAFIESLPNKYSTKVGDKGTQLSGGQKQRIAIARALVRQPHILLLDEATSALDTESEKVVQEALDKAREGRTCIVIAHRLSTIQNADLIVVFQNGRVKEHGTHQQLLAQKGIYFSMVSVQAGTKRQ

- EC50 [1]: 35 µM
Compound: O=C(Nc1ccc(F)cc1)c1sccc1Nc1cccc2c1OCCO2

- IC50 [3]: 4.8 µM
Compound: C=C1[C@H](OC(=O)C(C)C)C[C@@H](OC(=O)c2cccnc2)C(C)(C)/C=C/[C@@H](C)C(=O)[C@@]2(OC(C)=O)C[C@H](C)[C@H](OC(C)=O)[C@@H]2[C@H]1OC(C)=O
- IC5 [2]: 1.8 µM

- IC50 [4]: < 40 µM
- IC50 [5]: < 40 µM
Compound: CC[C@]1(O)C[C@H]2CN(CCc3c([nH]c4ccccc34)[C@@](C(=O)OC)(c3cc4c(cc3OC)N(C=O)[C@H]3[C@@](O)(C(=O)OC)[C@H](OC(C)=O)[C@]5(CC)C=CCN6CC[C@]43[C@@H]65)C2)C1 [VINCRISTINE]
- IC50 at 72 h [6]: < 40 µM

- fold change (FC) [9]: 3
- fold change (FC) [10]: 3
- fold change (FC) [11]: 3
Compound: CCCN(CCC)S(=O)(=O)c1ccc(C(=O)CC[C@H](N)C(=O)O)cc1

- EC50 [1]: 35 µM
Compound: O=C(Nc1ccc(F)cc1)c1sccc1Nc1cccc2c1OCO2

- IC50 [14]: 7.95 µM
- IC50 [15]: 23.9 µM
Compound: C/C=C/C[C@@H](C)[C@@H](O)[C@H]1C(=O)N[C@@H](CC)C(=O)N(C)CC(=O)N(C)[C@@H](CC(C)C)C(=O)N[C@@H](C(C)C)C(=O)N(C)[C@@H](CC(C)C)C(=O)N[C@@H](C)C(=O)N[C@H](C)C(=O)N(C)[C@@H](CC(C)C)C(=O)N(C)[C@@H](CC(C)C)C(=O)N(C)[C@@H](C(C)C)C(=O)N1C [CYCLOSPORINE]

- IC50 [17]: 0.068 µM
Compound: CO[C@@H]1[C@H](N(C)C(=O)c2ccccc2)C[C@H]2O[C@]1(C)n1c3ccccc3c3c4c(c5c6ccccc6n2c5c31)C(=O)NC4 [MIDOSTAURIN]

Continued, compound first:

Compound: C=CC(=O)N1CCC(Oc2cc3c(Nc4ccc(Cl)c(Cl)c4F)ncnc3cc2OC)CC1 [POZIOTINIB]
- fold change (FC) [7]: 6.2
- fold change (FC) [8]: 20.7

Compound: CC(=O)O[C@H]1C(=O)[C@@]2(C)[C@H]([C@H](OC(=O)c3ccccc3)[C@]3(O)C[C@H](OC(=O)[C@H](O)[C@@H](NC(=O)c4ccccc4)c4ccccc4)C(C)=C1C3(C)C)[C@]1(OC(C)=O)CO[C@@H]1C[C@@H]2O [PACLITAXEL]
- IC50 [4]: < 40 µM
- IC50 [5]: < 40 µM
- IC50 at 72 h [6]: < 40 µM

Compound: COc1ccc(CCN(C)CCCOc2ccc(S(=O)(=O)c3c(C(C)C)cn4ccccc34)cc2)cc1OC [FANTOFARONE]
- IC50 [12]: 30 µM
- Ratio IC50 [13]: 4.5

Compound: COc1ccc(CCN(C)CCCC(C#N)(c2ccc(OC)c(OC)c2)C(C)C)cc1OC (configuration not stated) [VERAPAMIL]
- fold change (FC) [16]: 4.7

Compound: C#CCn1c(-c2ccc(OC)cc2)nc2cc(Br)cnc21
- IC50 [18]: 0.2 µM
